# From patent US6469027B1, “N-methyl-D-aspartate (NMDA) receptor blockers for the prevention of atherosclerosis” (The Board of Regents of the University of Nebraska, priority 1996, dated 2002)
# What was measured:
# N-VSMC = assay: [3H]thymidine incorporation (DNA synthesis) in N-VSMC cultures; type: cell-based, chicken
# Description: FIG. 1 is a graph illustrating homocysteine's effects on the growth of VSMC cultures. Confluent N-VSMC cultures were growth arrested by incubating cells with M199 medium containing 1 μg/ml BSA for 48 h, exposed to various concentrations of H[cys] (0.01-4000μM) for 30 h, pulse labeled for 6 h with 2 μCi/ml [^3H]-thymidine, and cell monolayers were washed twice with cold (0° C.) 10% trichloroacetic acid (TCA). The amount of [^3H]-thymidine incorporation was determined by scintillation spectrophotometry. Results are shown as the means of ±S.D.
# FIGS. 2A-2C are graphs illustrating the effects of glutamate, homocysteic acid and NMDA on DNA synthesis in N-VSMC. N-VSMC were cultured and serum-deprived as described in “Experimental Procedures.” Cultures were treated with various concentrations of homocysteic acid (2A), NMDA (2B), or L-glutamate (2C) for 30 and pulsed 6h with [^3H] thymidine. All values are expressed as ±S.D. of six independent experiments completed in quadruplicate.
# Smooth Muscle Culture: The thoracic (N) and abdominal (M) aorta of normal 16 and 18-day embryos were cleaned of fat, and the intima-media was isolated from the adventitia. The intima-media was enzymatically dispersed into a single cell suspensions by a combination of collagenase and elastase followed by trypsin. VSMC were placed in primary culture at a constant density of 2×10^4 cells/cm^2 in multiwell plates or 100 mm culture plates in Medium 199 supplemented with 10% fetal bovine serum (FMS) and 2 mM glutamine, in an atmosphere of 95% air: 5% Co2 at 37° C. Primary cultures were grown for 7 days before they were seeded into first passage at the same cell density and grown to confluence. Experiments were carried out between passages 3-6. Experimental conditions for all cells included 48 h in Medium 199 supplemented with 1% FBS prior to initiating and experiment.
# DNA Synthesis: Growth factors were added directly to quiescent VSMCs in Medium 199 as described above. The cells were pulsed between 4-6 h with a final concentration of 2-5 μCi/ml [^3H]thymidine added at the times and for the periods indicated in the figure legends. The cells were washed, and the incorporation of [^3H]thymidine into acid insoluble material was determined as previously described. Den-Heijer, M. et al. (1996), Hyperhomocystinemia as a risk factor for deep-vein thrombosis. N. Eng. J. Med. 334(12):759-762.
# c-myb = c-myb expression in N-VSMC (RT-PCR, immunoprecipitation and western blot); type: cell-based, chicken
# Description: FIGS. 3A, 3B and 3C are RNA blot analyses of c-fos and c-myb mRNA isolated from N-VSMC cultures. Cultures were incubated in the absence and presence of 200μM H[cys] for 0, (lane 1); 15 min, (lane 2); 30 min, (lane 3); 45 min, (lane 4) and 60 min, (lane 5); and analyzed for c-fos expression. In FIG. 3B, the time course of c-myb MRNA induction in the presence of 200μM H[cys] for 0 h, (lane 1); 8 h, (lane 2); 16 h, (lane 3); 24 h, (lane 4). The c-fos transcripts were analyzed by northern blot and normalized to β actin expression. The amount of c-myb mRNA levels were normalized to estrogen receptor (ER) transcripts as determined by RT-PCR. […] The amount of c-myb mRNA levels were normalized to estrogen receptor (ER) transcripts as determined by RT-PCR. The amount of specific radiolabeling in the autoradiograph was quantified by scanning densitometry. The size of the c-Myb protein is 75 kilodaltons. The 75 kilodalton band is defined as c-Myb because immunoprecipitation of this protein was not detected in the presence of synthetic polypeptide [[…] encoded by sequences 1080-1133].
# FIG. 4 is a graph illustrating the analysis of c-myb synthesis in response to NMDA receptor antagonist, Mk-801 and CGS19755. Immunoprecipitation and western blotting of radiolabeled c-Myb from N-VSMC treated with 200μMH[cys] in the presence and absence of 50 μM Mk-801 or 1 mM CGS19755. Cell cultures were treated with and without H[cys] for 24 hours, extracts were immunoprecipitated with anti c-myb IgG and samples were separated by SDS-PAGE gels and western blotted. The amount of specific radiolabeling in the autoradiograph was quantified by scanning densitometry. The size of the c-Myb protein is 75 kilodaltons. The 75 kilodalton band is defined as c-Myb because immunoprecipitation of this protein was not detected in the presence of synthetic polypeptide [I13-[…] encoded by sequences 1080-1133].
# RNA Blot Analysis: Total RNA was isolated from VSMC derived from thoracic and abdominal aorta by homogenization, and lysis with guanidinium isothiocyanate was followed by phenol-chloroform extraction. Ten micrograms of total RNA per lane was separated in a 1.5% agarose-formaldehyde gel, and the RNA was transferred by capillary transfer to a 0.45 μm nylon membrane. Filters were hybridized as previously with cDNAs labeled with [^32P]deoxycytidine5′-triphosphate to specific activities of approximately 2×10^9 cpm/μg using a random prime labeling kit (Boehringer Mannheim Biochemicals, Indianapolis, Ind.). The probes included chicken c-fos, Bactin, estrogen receptor (ER) and c myb.
# Reverse Transcriptase-Polymerase Chain Reaction: Reverse transcription of 4 to 10,000 nanograms (ng) of RNA using 10 picomoles (pm) of hexamer primers was performed for 90 minutes (min) at 37° C. using 200 units superscript reverse transcriptase (Gibco BRL), in 50 mM Tris, pH, 8.2, 75 Mm KC1, 3 mM MgCl2, 10 mM dithiothreitol (DTT), 1 unit/μ1 RNasin (Promega), and 1 mM each of DATP, dCTP, dGTP, and dTTP. The samples were heated at 95° C. for 5 min to terminate the reverse transcription. The resulting cDNA was treated with 1 unit of […] at 37° C. for 20 min. A 5% fraction of the cDNA was subjected to PCR using c-myb upstream (5′ggTCCTTTgAAgATgCTgCC3′) and downstream(5′[…]gAgTCCgggTTg3′) primers; estrogen receptor (ER) (5′ggACTgCCAgCTgCCgATCTT3′) and (5′CTCACgAATgTggCgCCT3′) primers; β actin (5′AAgAggTAATCCTgACCCCTgAA3′) and (5′ACCCTgACCATCAgggAgTTCA3′) primers. PCR was performed using 0.25 μM of each primer, 3 μM cDNA, 0.2 mM of each deoxynucleotide triphosphate, 75 mM KC1, 1.5 mM MgCl2 and 0.5 unit Taq polymerase (Perkin Elmer; Cetus) in 10 mM Tris-HC1, pH 8.3 with total volume of 100 μl. […] PCR products were analyzed by electrophoresis in 1.5% agarose gels stained with ethidium bromide. PCR amplifications of all target templates and controls were run in parallel or on the same sample. […]
# PDGG-AA = PDGG-AA release from TA-VSMCs; type: cell-based; conditions: 0.2 mM
# rat liver cells = conditions: cited from earlier work
# [1] = neural crest derived smooth muscle cells
smiles,measurement,setting,value
N[C@@H](CCS)C(=O)O [homocysteine],DNA synthesis increased,"N-VSMC; N-VSMC incubated with 0.01 to 4000 μM homocysteine, dose dependent and saturable",12 fold
same,DNA synthesis at high concentration,N-VSMC; homocysteine concentrations above 300 μM,completely suppressed
same,DNA synthesis increased,N-VSMC; [1],5 fold
same,c-myb mRNA transcripts induced,c-myb; 200 μM homocysteine,6 fold
same,cMyb protein,c-myb; 30 and 100 μM,dose dependent increase
same,c-myb induction,c-myb; [1],induced
same,delay in PDGG-AA release,PDGG-AA,not observed
same,protein bound H[cys] in the microsomal fraction,rat liver cells,50%
